The results in this text go back to patent US9375497B2, “[F-18]-labeled L-glutamic acid, [F-18]-labeled L-glutamine, derivatives thereof and use thereof and processes for their preparation” (BAYER SCHERING PHARMA AKTIENGESELLSCHAFT, priority 2006, dated 2016).

Data set [1] has as its system A549 (non-small-cell bronchial carcinoma) cells. Put plainly: Tumor cell uptake in A549 cells. It is filed as cell-based, human. The settings on record: 250 kBq/well, compared to [^18F]FDG. The protocol: (§1) For the evaluation of the tumor cell uptake of [^18F]glutamic acid, cell uptake experiments were carried out in human A549 (non-small-cell bronchial carcinoma) and HT29 (colonic carcinoma) cells. The tumor cell uptake of the glutamic acid derivatives was compared to
(§2) [^18F]FDG (gold standard for oncological PET investigations).
FIG. 2: Comparison of the time-dependent tumor cell uptake of [^18F]-4-glutamic acid [20-35 μM] (on the left) and [F-18]FDG [2 μM] (on the right) in A549 cells. The cells were incubated with 250 kBq/well. For displacement experiments, L-glutamic acid (1 mM) or glucose (5 mM) was used (mean value±standard deviation, n=3).

In data set [2] the test system is HT29 (colonic carcinoma) cells. The data set is described as follows: Tumor cell uptake in HT29 cells. The format is cell-based, human. The following applies: compared to [^18F]FDG. The protocol: as §1, §2
Data set [3] has as its system murine B16F1 melanoma model in C57BI6 mice. The data set is described as follows: Tumor enrichment and tissue distribution, B16F1 melanoma model. The following applies: for Tumor/tissue quotient, Ovary: single i.v.; for Tissue uptake, Brain: single i.v. 111 kBq. The protocol: (§3) For the evaluation of the tumor enrichment and the tissue distribution in experimental animals, [^18F]-4-glutamic acid was tested in a murine F9 teratocarcinoma model in NMRI nude mice and a murine B16F1 melanoma model in C57BI6 mice.
For this, 1×10^6 cells (F9) or 5×10^5 cells (B16F1) respectively were suspended in 100 μl of phosphate-buffered physiological saline solution and inoculated subcutaneously into the right, rear flank of the corresponding experimental animal species (NMRI for F9 and 057-BI6 for B16F1) (Berndorff et al. Clin. Cancer Res. 2005, 11, 2005). […] [^18F]-4-Glutamic acid (370 kBq, in 100 μl of physiological saline solution) was administered intravenously to the tail vein. After 15; 60 and 120 min in each case, the animals were killed, organ and tumor removed, weighed and measured for radioactive content.

The subject of data set [4] is murine F9 teratocarcinoma model in NMRI nude mice. Put plainly: Tumor enrichment and tissue distribution, F9 teratocarcinoma model. The following applies: for Tumor/tissue quotient, Liver: single i.v. The protocol:
as §3
For this, 1×10^6 cells (F9) or 5×10^5 cells (B16F1) respectively were suspended in 100 μl of phosphate-buffered physiological saline solution and inoculated subcutaneously into the right, rear flank of the corresponding experimental animal species (NMRI for F9 and 057-BI6 for B16F1) (Berndorff et al. Clin. Cancer Res. 2005, 11, 2005). […] [^18F]-4-Glutamic acid (370 kBq, in 100 μl of physiological saline solution) was administered intravenously to the tail vein. […]

For `NC(CC(OCC[18F])C(=O)O)C(=O)O` (centres unmarked) [2-amino-4-(2-[F-18]fluoroethoxy)pentanedicarboxylic acid], the tumor cell uptake entry in data set [1] and in data set [2] was “Analogous uptake results” in each case.

Turning to `NC(CC(CCC[18F])C(=O)O)C(=O)O` (centres unmarked) [2-amino-4-(3-[F-18]fluoropropyl)pentanedicarboxylic acid], the tumor cell uptake entry in data set [1] and in data set [2] was “Analogous uptake results” throughout.

Consider `N[C@@H](CC[14C](=O)O)C(=O)O` [[^14C]5-glutamic acid, reference compound], for which the “Tumor/tissue quotient, Ovary” value in data set [3] (0.25 h (times as Table 7)) is 0.47; in data set [3] (1.0 h (times as Table 7)), 1.01. Besides, the “Tissue uptake, Brain” value in data set [3] (0.25 h) was 0.22 % dose/g; in data set [3] (1.0 h) it was 0.13 % dose/g; in data set [3] (2.0 h), 0.09 % dose/g. For the same molecule, the tumor enrichment is given as 1.03 % ID/g in data set [3] (B16F1 melanoma, 1 h after intravenous administration) and 0.98 % ID/g in data set [4] (F9 teratocarcinoma, 1 h after intravenous administration). Besides, the maximal tumor enrichment turned out to be 1.23 in data set [3] (B16F1 melanoma, "at the same time") and 0.81 % ID/g in data set [4] (F9 teratocarcinoma, similarly early time (30 min)). Besides, the “Tumor/tissue quotient, Liver” value in data set [4] (1.0 h (times as Table 5)) worked out at 1.31; in data set [4] (4.0 h (times as Table 5)) it was 1.09.

For the molecule `NC(=O)C([18F])CC(N)C(=O)O` (centres unmarked) [[^18F]-4-glutamine, 2-amino-4-[F-18]fluoroglutamine], the tumor cell uptake entry in data set [1] and in data set [2] was “Analogous uptake results” throughout.
